The subject of the assay is 50 different cell lines. The experiment in a line: NCI cancer cell line panel, SRB assay, second set, 6 days exposure (whole panel, mean graph). It counts as cell-based. The method, then: Arsenic trioxide (1 mg/ml, 10 mg/ampoule, manufactured by Taylor Pharmaceuticals, Decatur, Ill.) was tested at five concentrations each at 10-fold dilutions, i.e., 10^−5, 10^−6, 10^−7, 10^−8 and 10^−9 μg/ml.
The in vitro tests were performed by incubating the test cells in the presence of the indicated concentration of arsenic trioxide under standard culture conditions for a designated period of time, which is followed by a sulforhodamine B (SRB) protein assay to estimate cell viability or growth. The cell lines are organized into subpanels according to the origin of the cell lines, e.g., leukemia, breast cancer, etc. A description of the cell lines and method of testing is described in Monk et al. (1997, Anticancer Drug Des. 12:533-41) and Weinstein et al., (1997, Science 275:343-9), which are incorporated herein in their entirety.
The measurement of an effect is expressed in Percentage Growth (PG). […]
The first two columns describe the subpanel (e.g., leukemia) and cell line (e.g., CCRF-CEM) involved. […] Each concentration is expressed as the log10 (molar or μg/ml). The next five columns list the calculated PGs for each concentration. […]
(In general: The SRB assay estimates cell density from bound dye.)

The values below come from patent US6875451B2, “Compositions and methods for the treatment of primary and metastatic neoplastic diseases using arsenic compounds” (PolaRx Biopharmaceuticals Inc., priority 1997, dated 2005).

arsenic trioxide: the reducing cell growth entry (second set of tests, all cell lines tested) is “effective in reducing cell growth against all the cell lines tested”. For the same substance, where the note is “several melanoma cell lines”, the “sensitivity at the various principal response parameters” value is listed as “especially sensitive”.
